Assay results published in ChEMBL document CHEMBL5500395 (J Med Chem, 2024).

Experiment: Solubility of compound in PBS at pH 7.4 at 100 uM incubated for 120 mins by LC-MS/MS analysis
Assay type: physicochemical
Settings: buffer, pH 7.4, 2 h

Q: With N[C@H]1C[C@H](OC(=O)[C@@H]2[C@H]3C[C@H]4c5[nH]c6ccccc6c5CCN4C[C@@H]3CC[C@@H]2O)C1 as the compound, how does the solubility read?
A: Its solubility is “Soluble”.

Q: For O=C(OC[C@H]1CCN1)[C@@H]1[C@H]2C[C@H]3c4[nH]c5ccccc5c4CCN3C[C@@H]2CC[C@@H]1O, which solubility is on record?
A: The solubility was “Soluble”.

Q: For O=C(OC[C@H]1CCNC1)[C@@H]1[C@H]2C[C@H]3c4[nH]c5ccccc5c4CCN3C[C@@H]2CC[C@@H]1O, which solubility is on record?
A: The solubility was “Soluble”.

Q: With CC(C)OC(=O)[C@@H]1[C@H]2C[C@H]3c4[nH]c5ccccc5c4CCN3C[C@@H]2CC[C@@H]1O as the compound, how does the solubility read?
A: Its solubility is “Soluble”.

Q: With O=C(OC1COC1)[C@@H]1[C@H]2C[C@H]3c4[nH]c5ccccc5c4CCN3C[C@@H]2CC[C@@H]1O as the compound, how does the solubility read?
A: The solubility was “Soluble”.

Q: With N[C@H]1C[C@@H](OC(=O)[C@@H]2[C@H]3C[C@H]4c5[nH]c6ccccc6c5CCN4C[C@@H]3CC[C@@H]2O)C1 as the compound, how does the solubility read?
A: Its solubility is “Soluble”.

Q: Which solubility does the source give for O=C(N[C@H]1CCNC1)[C@@H]1[C@H]2C[C@H]3c4[nH]c5ccccc5c4CCN3C[C@@H]2CC[C@@H]1O here?
A: The solubility was “Soluble”.

Q: With CNCCOC(=O)[C@@H]1[C@H]2C[C@H]3c4[nH]c5ccccc5c4CCN3C[C@@H]2CC[C@@H]1O as the compound, how does the solubility read?
A: The solubility was “Soluble”.

Q: For O=C(OC1CCNCC1)[C@@H]1[C@H]2C[C@H]3c4[nH]c5ccccc5c4CCN3C[C@@H]2CC[C@@H]1O, which solubility is on record?
A: Its solubility is “Soluble”.

Q: With O=C(OC[C@H]1CCCN1)[C@@H]1[C@H]2C[C@H]3c4[nH]c5ccccc5c4CCN3C[C@@H]2CC[C@@H]1O as the compound, how does the solubility read?
A: Its solubility is “Soluble”.

Q: With O=C(O[C@H]1CCOC1)[C@@H]1[C@H]2C[C@H]3c4[nH]c5ccccc5c4CCN3C[C@@H]2CC[C@@H]1O as the compound, how does the solubility read?
A: The solubility was “Soluble”.

Q: With CN1CC[C@H](OC(=O)[C@@H]2[C@H]3C[C@H]4c5[nH]c6ccccc6c5CCN4C[C@@H]3CC[C@@H]2O)C1 as the compound, how does the solubility read?
A: Its solubility is “Soluble”.

Q: Which solubility does the source give for O=C(OC[C@@H]1CCNC1)[C@@H]1[C@H]2C[C@H]3c4[nH]c5ccccc5c4CCN3C[C@@H]2CC[C@@H]1O here?
A: The solubility was “Soluble”.

Q: With O=C(OC1CNC1)[C@@H]1[C@H]2C[C@H]3c4[nH]c5ccccc5c4CCN3C[C@@H]2CC[C@@H]1O as the compound, how does the solubility read?
A: The solubility was “Soluble”.

Q: Which solubility does the source give for CCOC(=O)[C@@H]1[C@H]2C[C@H]3c4[nH]c5ccccc5c4CCN3C[C@@H]2CC[C@@H]1O here?
A: The solubility was “Soluble”.

Q: Which solubility does the source give for O=C(O[C@@H]1CCNC1)[C@@H]1[C@H]2C[C@H]3c4[nH]c5ccccc5c4CCN3C[C@@H]2CC[C@@H]1O here?
A: The solubility was “Soluble”.

Q: Which solubility does the source give for O=C(O[C@H]1CCNC1)[C@@H]1[C@H]2C[C@H]3c4[nH]c5ccccc5c4CCN3C[C@@H]2CC[C@@H]1O here?
A: The solubility was “Soluble”.
